Results taken from patent US8623924B2, “Compositions and methods for modulating metabolic pathways” (Nusirt Sciences, Inc., priority 2011, dated 2014).
“Also recorded” adds a separate entry of the source. Marks after values point to notes of the source that are not given here.

Legend:
IL-6 = test: Inflammatory biomarker IL-6 in diet-induced obese mice; format: in vivo; settings: 6 weeks on diet, low resveratrol 12.5 mg/kg diet, low HMB 2 g CaHMB/kg diet, high HMB 10 g CaHMB/kg diet, leucine 2.42% of diet
SIRT1 [1] = biological target: T1, SIRT1 (Homo sapiens, UniProt Q96EB6); test: SIRT1 activity, cell-free fluorimetric deacetylation assay; format: biochemical; settings: cell-free system
T1 construct: purchased ENZO Life Sciences International, Inc. BML-AK555
T1 sequence (Q96EB6 1-747): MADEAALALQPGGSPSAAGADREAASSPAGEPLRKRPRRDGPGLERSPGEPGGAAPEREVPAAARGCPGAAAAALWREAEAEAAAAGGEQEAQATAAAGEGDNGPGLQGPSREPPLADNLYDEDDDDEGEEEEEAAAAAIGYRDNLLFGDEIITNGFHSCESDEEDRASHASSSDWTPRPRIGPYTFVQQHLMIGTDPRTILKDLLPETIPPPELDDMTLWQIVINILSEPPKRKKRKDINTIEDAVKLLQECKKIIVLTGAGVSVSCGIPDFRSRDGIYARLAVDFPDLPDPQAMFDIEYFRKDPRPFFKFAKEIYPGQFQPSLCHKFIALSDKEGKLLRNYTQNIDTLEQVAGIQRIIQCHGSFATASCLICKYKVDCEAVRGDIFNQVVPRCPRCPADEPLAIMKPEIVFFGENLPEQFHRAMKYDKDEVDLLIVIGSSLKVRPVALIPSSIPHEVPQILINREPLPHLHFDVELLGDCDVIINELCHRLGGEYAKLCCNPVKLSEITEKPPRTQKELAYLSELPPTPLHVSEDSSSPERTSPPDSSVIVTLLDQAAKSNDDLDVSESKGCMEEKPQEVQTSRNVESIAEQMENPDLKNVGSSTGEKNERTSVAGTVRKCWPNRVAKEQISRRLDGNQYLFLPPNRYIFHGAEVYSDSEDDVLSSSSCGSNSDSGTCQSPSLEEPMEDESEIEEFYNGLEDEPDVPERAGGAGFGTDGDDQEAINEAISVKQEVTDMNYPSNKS
Description: SIRT1 activity was measured by using the SIRT1 Fluorimetric Drug Discovery Kit (BML-AK555, ENZO Life Sciences International, Inc. PA, USA). In this assay, SIRT1 activity is assessed by the degree of deacetylation of a standardized substrate containing an acetylated lysine side chain. The substrate utilized is a peptide containing amino acids 379-382 of human p53 (Arg-His-Lys-Lys[Ac]), an established target of SIRT1 activity; SIRT1 activity is directly proportional to the degree of deacetylation of Lys-382. Samples were incubated with peptide substrate (25 μM), and NAD^+ (500 μM) in a phosphate-buffered saline solution at 37° C. on a horizontal shaker for 45 minutes. The reaction was stopped with the addition of 2 mM nicotinamide and a developing solution that binds to the deacetylated lysine to form a fluorophore. Following 10 minutes incubation at 37° C., fluorescence was read in a plate-reading fluorometer at an excitation wavelength of 360 nm and an emission wavelength of 450 nm. […] A standard curve was constructed using deacetylated substrate (0-10 μM).

Sirt3 = biological target: T2, Sirt3 (Mus musculus, UniProt Q8R104); test: Sirt3 activity in mitochondrial protein of treated 3T3-L1 adipocytes; format: cell-based; settings: 4 hours, leucine 0.5 mM, HMB 5 uM, resveratrol 200 nM
T2 construct: endogenous in cells; host or cells: 3T3-L1 adipocytes (mitochondrial protein)
T2 sequence (Q8R104 1-334): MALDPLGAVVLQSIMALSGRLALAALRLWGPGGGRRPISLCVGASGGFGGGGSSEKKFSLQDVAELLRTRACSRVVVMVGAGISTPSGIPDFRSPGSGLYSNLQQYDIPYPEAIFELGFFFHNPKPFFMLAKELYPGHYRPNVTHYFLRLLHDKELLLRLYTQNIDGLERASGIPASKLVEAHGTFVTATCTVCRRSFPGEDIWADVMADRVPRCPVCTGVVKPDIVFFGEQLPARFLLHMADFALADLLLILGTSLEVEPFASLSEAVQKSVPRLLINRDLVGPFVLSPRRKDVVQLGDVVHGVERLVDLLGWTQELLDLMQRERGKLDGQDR

Sirt1 [2] = biological target: T3, Sirt1 (Mus musculus, UniProt Q923E4); test: Adipose tissue Sirt1 activity in diet-induced obese mice; format: in vivo; settings: low dose of resveratrol, HMB, or their combinations with HMB or leucine (FIG. 10)
T3 construct: from tissue; host or cells: adipose tissue of c57/BL6 mice
T3 sequence (Q923E4 1-737): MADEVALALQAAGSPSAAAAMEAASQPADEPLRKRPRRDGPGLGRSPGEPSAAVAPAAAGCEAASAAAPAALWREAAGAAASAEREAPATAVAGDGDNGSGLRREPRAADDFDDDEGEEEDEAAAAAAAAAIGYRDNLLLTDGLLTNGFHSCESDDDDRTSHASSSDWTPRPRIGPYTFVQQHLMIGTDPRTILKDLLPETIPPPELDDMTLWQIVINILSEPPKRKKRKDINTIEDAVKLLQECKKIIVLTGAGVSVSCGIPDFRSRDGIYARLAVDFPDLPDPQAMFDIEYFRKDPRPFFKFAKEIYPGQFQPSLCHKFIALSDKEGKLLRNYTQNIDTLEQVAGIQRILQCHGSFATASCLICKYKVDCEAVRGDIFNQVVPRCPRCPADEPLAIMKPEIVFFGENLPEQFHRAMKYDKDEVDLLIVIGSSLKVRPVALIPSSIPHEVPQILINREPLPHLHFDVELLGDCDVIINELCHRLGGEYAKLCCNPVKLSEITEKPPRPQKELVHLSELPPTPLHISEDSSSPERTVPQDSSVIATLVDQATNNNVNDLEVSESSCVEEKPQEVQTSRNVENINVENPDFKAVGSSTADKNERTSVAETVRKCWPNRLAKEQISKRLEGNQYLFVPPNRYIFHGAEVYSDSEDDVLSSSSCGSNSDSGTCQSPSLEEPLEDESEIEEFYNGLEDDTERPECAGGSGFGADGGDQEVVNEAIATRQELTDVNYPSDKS

MCP-1 = test: Inflammatory biomarker MCP-1 in diet-induced obese mice; format: in vivo; settings: 6 weeks on diet, low resveratrol 12.5 mg/kg diet, low HMB 2 g CaHMB/kg diet, high HMB 10 g CaHMB/kg diet, leucine 2.42% of diet
[3] = tested on: PGC-1α, NRF-1 and UCP3 genes; test: Expression of mitochondrial regulatory and component genes; format: cell-based
Adiponectin = Adiponectin in diet-induced obese mice; format: in vivo; settings: 6 weeks on diet, low resveratrol 12.5 mg/kg diet, low HMB 2 g CaHMB/kg diet, high HMB 10 g CaHMB/kg diet, leucine 2.42% of diet
C-reactive protein = test: Inflammatory biomarker C-reactive protein in diet-induced obese mice; format: in vivo; settings: 6 weeks on diet, low resveratrol 12.5 mg/kg diet, low HMB 2 g CaHMB/kg diet, high HMB 10 g CaHMB/kg diet, leucine 2.42% of diet

SMILES: CC(C)(O)CC(=O)O [HMB]
- IL-6 (pg/mL) (IL-6): 19.9 ± 3.1^a pg/mL
- SIRT1 activity (SIRT1 [1]): significantly increased SIRT1 activity
- increase in Sirt3 activity (Sirt3): no significant independent effect; also recorded: no independent effects
- adipose tissue Sirt1 activity (Sirt1 [2]): Neither resveratrol nor HMB exerted significant independent effects
- MCP-1 (pg/mL) (MCP-1): 116.8 ± 9.3^a pg/mL
- expression of mitochondrial regulatory (PGC-1α and NRF-1) and component (UCP3) genes [3]: stimulated expression
- Adiponectin (ng/mL) (Adiponectin): 11.1 ± 1.6^a ng/mL
- C-reactive protein (C-reactive protein): 98.6 ± 5.1 ng/mL
